Measured values taken from patent US20110207944A1, “VITAMIN D3 LACTAM DERIVATIVE” (TEIJIN PHARMA LIMITED, priority 2008, published 2011).

Experiments:
[1] = biological target: T1, Human Vitamin D3 Receptor (VDR) (Homo sapiens, UniProt P11473); assay: Binding affinity to human vitamin D3 receptor (Polarscreen Vitamin D Receptor Competitor assay, Red; fluorescence polarization); conditions: ratio of IC50 relative to IC50 of 1α,25-dihydroxyvitamin D3
T1 construct: purchased Invitrogen Corporation
T1 sequence (P11473 1-427): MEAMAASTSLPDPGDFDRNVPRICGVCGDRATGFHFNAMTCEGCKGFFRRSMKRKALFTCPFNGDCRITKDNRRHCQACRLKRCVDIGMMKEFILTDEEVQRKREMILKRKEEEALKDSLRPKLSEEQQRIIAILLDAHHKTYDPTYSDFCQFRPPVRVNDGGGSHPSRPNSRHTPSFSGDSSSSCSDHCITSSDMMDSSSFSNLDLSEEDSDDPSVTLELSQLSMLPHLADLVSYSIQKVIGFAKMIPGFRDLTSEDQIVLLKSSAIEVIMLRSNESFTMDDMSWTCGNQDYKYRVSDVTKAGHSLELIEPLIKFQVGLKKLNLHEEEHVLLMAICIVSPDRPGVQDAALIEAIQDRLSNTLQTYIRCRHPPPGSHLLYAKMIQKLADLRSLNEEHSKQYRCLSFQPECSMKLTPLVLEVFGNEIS
Experimental: Binding Affinity to Human Vitamin D3 Receptor (VDR) This binding affinity was assessed by a VDR affinity measurement kit (Polarscreen™ Vitamin D Receptor Competitor assay, Red; Invitrogen Corporation). The compounds of the present invention or 1α,25-dihydroxyvitamin D3 at various concentrations in DTT-containing buffer (pH 7.5) were mixed with fluorescence-labeled VDR ligand-human VTR complex in DTT-containing buffer (pH 7.5). The degree of polarization of the resulting solution was measured after the incubation of the solution at room temperature. The polarization values were plotted against the concentration of the test compounds, IC50 (the concentration of the test compounds at which the polarized value is reduced to 50%) was determined.

[2] = biological target: T2, human VDR (Homo sapiens, UniProt P11473); assay: Vitamin D3 receptor-antagonist activity: human osteocalcin promoter luciferase reporter in HOS cells transfected with human VDR and human RXR; format: cell-based; conditions: for Antagonist specific activity against TEI-9647 (%): IC50 of test compound with respect to IC50 of TEI-9647 in each experiment; for IC50: luciferase activity in HOS cells, with 1α,25-dihydroxyvitamin D3 1×10^−8 M, 24 hours
T2 construct: expressed in transfected cells; host or cells: HOS cells (human osteosarcoma, ATCC), pcDNA3 expression vector, Lipofectamine 2000
T2 sequence (P11473 1-427): T1 sequence (P11473 1-427)
Source text: Vitamin D3 Receptor-Antagonist Activity in Terms of the Transcription Activity in Human Osteocalcin by 1α,25-dihydroxyvitamin D3 as a Marker
(1) A pGL3 vector (Promega Corp.) was used as a reporter vector. The promoter sequence of the human osteocalcin gene, which was obtained by a known method (Ozono et al., J. Biol. Chem., 265:21881-21888, 1990), was cloned from cDNA acquired from HOS cells (obtained from ATCC) and inserted into the upstream of the luciferase gene on the reporter vector. An expression vector was constructed by inserting a DNA sequence encoding human VDR and human RXR into a pcDNA3 vector (Invitrogen Corp). The HOS cells were incubated in a DMEM medium supplemented with 10% FBS at 37° C. in the presence of 5% CO2, and subcultivated every 2 or 3 days.
(2) Cells being subcultivated were collected by centrifugation and re-suspended in a serum and phenol red-free DMEM medium at 4×10^5 cells/mL. The re-suspension of cells was plated in a 96 well plate at 0.1 mL/well. In this system, various vectors described in (1) were added at 0.05 mL/well with Lipofectamin 2000 (Invitrogen Corp.). After the incubation for 3 hours at 37° C., 1α,25-dihydroxyvitamin D3 and the compounds of the present invention in various concentrations or TEI-9647 (note) as a control (the final concentration: 1×10^−8 M for 1α,25-dihydroxyvitamin D3, and 1×10^−6M and 1×10^−12M for the compounds of the present invention and TEI-9647) were added to each well. After incubation at 37° C. for 24 hours, the medium was removed, the cells were washed with PBS(−) once, and measured for the luciferase activity using a Dual Glo-Luciferase Assay kit (Promega Corp.) by luminometer (Berthold Corp.). The resulting luciferase values were plotted against the concentration of the test compounds and IC50 was determined as the concentration of the test compound at which the luciferase value was inhibited by 50%. Furthermore, to compare the intensities of activity among experiments, the IC50 value of the test compounds with respect to the IC50 value of […] in each experiment was calculated as the antagonist specific activity (%) against TEI-9647.

[3] = biological target: T3, intracellular 1α,25-dihydroxyvitamin D3 receptor protein in chick intestinal mucous membrane (Gallus gallus, UniProt O42392); assay: Binding affinity to intracellular vitamin D3 receptor (VDR) in chick intestinal mucous membrane, [3H]1α,25-dihydroxyvitamin D3 competition; conditions: ratio of IC50 relative to IC50 of 1α,25-dihydroxyvitamin D3, 25° C., 1 hour
T3 construct: The intracellular 1α,25-dihydroxyvitamin D3 receptor protein in chick intestinal mucous membrane (0.2 mg); from tissue; host or cells: chick intestinal mucous membrane
T3 sequence (O42392 1-451): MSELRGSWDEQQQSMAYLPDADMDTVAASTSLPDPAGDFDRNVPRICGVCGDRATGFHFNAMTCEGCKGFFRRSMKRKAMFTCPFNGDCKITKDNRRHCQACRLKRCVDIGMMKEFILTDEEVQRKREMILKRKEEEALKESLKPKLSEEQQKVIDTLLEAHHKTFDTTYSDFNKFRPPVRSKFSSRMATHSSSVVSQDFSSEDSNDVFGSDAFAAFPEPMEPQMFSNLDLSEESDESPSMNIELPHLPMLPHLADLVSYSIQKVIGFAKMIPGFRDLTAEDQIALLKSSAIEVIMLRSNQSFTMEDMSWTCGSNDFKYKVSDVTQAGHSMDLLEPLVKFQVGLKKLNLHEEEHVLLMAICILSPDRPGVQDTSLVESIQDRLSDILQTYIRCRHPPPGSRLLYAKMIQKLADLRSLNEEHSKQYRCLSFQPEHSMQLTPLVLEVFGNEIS
Experimental: Binding Affinity to Intracellular Vitamin D3 Receptor (VDR) in Chick Intestinal Mucous Membrane
This binding affinity was assayed according to the method described by Ishizuka, et al. (Steroids, 37:33-43, 1982). Specifically, a solution of [26, 27-methyl-^3H]1α,25-dihydroxyvitamin D3 (15,000 dpm, 180 Ci/mmol) in ethanol (10 μL) and a solution of various concentrations of the compounds of the present invention in ethanol (40 μL) were added into a polypropylene tube (12×75 mm). The intracellular 1α,25-dihydroxyvitamin D3 receptor protein in chick intestinal mucous membrane (0.2 mg) and gelatin (1 mg) were dissolved in 1 mL of phosphate buffer (pH 7.4), the solution was added into the tube, and the mixture was allowed to react at 25° C. for 1 hour. To the tube, a 40% polyethylene glycol 6000 solution (1 mL) was added and the mixture was vigorously stirred. Then the tube was centrifuged at 2260×g at 4° C. for 60 minutes. The bottom of the tube containing precipitate was cut off by a cutter knife and was placed in a liquid scintillation vial, dioxane scintillator (10 mL) was added thereto and the radioactivity of the precipitate was measured by a liquid scintillation counter. The measured values were plotted against the concentration of the test compounds, and IC50 (the concentration of the test compounds at which binding to the receptor was inhibited by 50%) was determined. The ratios of the IC50 of the compounds of the present invention over the IC50 of 1α,25-dihydroxyvitamin D3 were calculated as the VDR affinity of the compounds of the present invention (%).

[4] = test system: HL-60 cells; assay: Vitamin D3 receptor-antagonist effect: inhibition of 1α,25-dihydroxyvitamin D3-induced differentiation of HL-60 (NBT reduction activity); format: cell-based; conditions: Homo sapiens, 96 h; NBT-positive HL-60 cells, co-treatment with 1α,25-dihydroxyvitamin D3 1×10^−8 M, 4 days
Source text: Vitamin D3 Receptor-Antagonist Effect in Terms of Cellular Differentiation-Inducing Activity of 1α,25-dihydroxyvitamin D3 in HL-60 as a Marker
(1) A HL-60 cell line purchased from a cell bank (Japanese Cancer Research Resource Bank, Cell number: JCRB0085) was used. The cells were frozen for storage as a frozen storage stock to prevent cell characteristic changes due to successive cultivations. The cells were defrosted prior to the initiation of the experiment, and those which started successive culturing were used in the experiment. Cells subcultured for one month to a half year were used for the experiment. The successive culturing was carried out by diluting the cells at a ratio of about 1/100 (1-2×10^4 cells/mL) in a fresh medium after the collection of cells from a cell suspension by centrifugation. RPMI-1640 supplemented with 10% fetal bovine serum was used as the culture medium.
(2) The subcultured cells by the procedure described in (1) were collected by centrifugation and re-suspended in the medium at 5×10^3 cells/mL, and the cells were plated into a 24-well culture dish at 1 mL/well. To this system, a solution of 1α,25-dihydroxyvitamin D3 at a concentration of 1×10^−5 M and the compounds of the present invention in a range of […] to 3×10^−3 M in ethanol, respectively, were added at 1 μL per well (the final concentration: 1×10^−8 M for 1α,25-dihydroxyvitamin D3, and 1×10^−9 M to 3×10^−6 M for the compounds of the present invention). Ethanol was added at 1 μL per well as a control. After the plate was incubated at 37° C. for 4 days in the presence of 5% CO2, the cells were separated and collected by centrifugation.
(3) The induction of nitroblue tetrazolium (hereinafter NBT) reduction activity was used as a marker for cell differentiation-inducing activity of HL-60 cells. The measurement of NBT reduction activity was carried out according to the following procedure. Specifically, cells collected by centrifugation were re-suspended in a fresh medium. Then 0.1% of NBT and 12-O-tetradecanoylphorbor-13-acetate at a final concentration of 100 ng/mL were added to the cell suspension and the mixture was incubated at 37° C. for 25 minutes. Then the cytospin smears were prepared and stained with Kernechtrot after air-drying. The ratio of positive cells expressing NBT reduction activity was determined under optical microscopy. Percentage ratios of the ratio of NBT-positive cells in a simultaneous treatment with 1α,25-dihydroxyvitamin D3 (1×10^−8 M) and a compound of the present invention (1×10^−9M and 3×10^−6 M) over the ratio of the NBT-positive cells in a single treatment with 1α,25-dihydroxyvitamin D3 (1×10^−8 M) were plotted against the treating concentration of the compounds of the present invention. […]

Compound | VDR affinity (%) [1] [%] | Antagonist specific activity against TEI-9647 (%) [2] [%] | IC50 [2] [nM] | VDR affinity (%) [3] [%] | IC50 [4] [nM]
C=C1/C(=C\C=C2/CCC[C@]3(C)[C@@H]([C@H](C)CC4CC(C)(O)C(=O)N4Cc4cc(OCC)cc(OCC)c4)CC[C@@H]23)C[C@@H](O)[C@H](C)[C@@H]1O (single isomer, unassigned) [Compound No. 41c, 2α-methyl-1α,25-dihydroxyvitamin D3-26,23-lactam-N-(3,5-diethoxybenzyl)] | 30 | 17.8 | 52.7 | – | –
C=C1/C(=C\C=C2/CCC[C@]3(C)[C@@H]([C@H](C)C[C@H]4C[C@](C)(O)C(=O)N4CCc4ccccc4)CC[C@@H]23)C[C@@H](O)[C@H](OCCCO)[C@@H]1O [Compound No. 13a, 2α-(3-hydroxypropoxy)-1α,25-dihydroxyvitamin D3-26,23-lactam-N-(2-phenethyl)] | – | 29.9 | 83.3 | 20 | 52
C=C1/C(=C\C=C2/CCC[C@]3(C)[C@@H]([C@H](C)CC4CC(C)(O)C(=O)N4Cc4cc(OCC)cc(OCC)c4)CC[C@@H]23)C[C@@H](O)[C@H](OCCCO)[C@@H]1O (stereo partly drawn) [Compound No. 43c, 2α-(3-hydroxypropoxy)-1α,25-dihydroxyvitamin D3-26,23-lactam-N-(3,5-diethoxybenzyl)] | – | 9.8 | 95.8 | – | –
C=C1/C(=C\C=C2/CCC[C@]3(C)[C@@H]([C@H](C)CC4CC(C)(O)C(=O)N4CCc4ccccc4)CC[C@@H]23)C[C@@H](O)[C@H](C)[C@@H]1O (stereo partly drawn) [Compound No. 11a, 2α-methyl-1α,25-dihydroxyvitamin D3-26,23-lactam-N-(2-phenethyl)] | – | 90.5 | 27.5 | 50 | 16
C=C1/C(=C\C=C2/CCC[C@@]3(C)C2CC[C@@H]3[C@H](C)CC2CC(C)(O)C(=O)N2Cc2cc(OCC)cc(OCC)c2)C[C@@H](O)[C@H](CCCO)[C@@H]1O (stereo partly drawn) [Compound No. 42c, 2α-(3-hydroxypropyl)-1α,25-dihydroxyvitamin D2-26,23-lactam-N-(3,5-diethoxybenzyl)] | – | 6.1 | 75 | – | –
C=C1/C(=C\C=C2/CCC[C@]3(C)[C@@H]([C@H](C)C[C@H]4C[C@](C)(O)C(=O)N4CCc4ccccc4)CC[C@@H]23)C[C@@H](O)[C@H](CCCO)[C@@H]1O [Compound No. 12a, 2α-(3-hydroxypropyl)-1α,25-dihydroxyvitamin D3-26,23-lactam-N-(2-phenethyl)] | – | 143.1 | 17.4 | 222 | 10
C=C1/C(=C\C=C2/CCC[C@]3(C)[C@@H]([C@H](C)CC4CC(C)(O)C(=O)N4CCc4ccccc4)CC[C@@H]23)C[C@@H](O)[C@H](CCCO)[C@@H]1O (stereo partly drawn) [Compound No. 12b, 2α-(3-hydroxypropyl)-1α,25-dihydroxyvitamin D3-26,23-lactam-N-(2-phenethyl)] | – | – | – | – | 170
C=C1/C(=C\C=C2/CCC[C@]3(C)[C@@H]([C@H](C)CC4CC(C)(O)C(=O)N4Cc4cc(OCC)cc(OCC)c4)CC[C@@H]23)C[C@@H](O)[C@H](C)[C@@H]1O (stereo partly drawn) [Compound No. 41a, 2α-methyl-1α,25-dihydroxyvitamin D3-26,23-lactam-N-(3,5-diethoxybenzyl)] | 31 | – | – | – | –
